Assays:
fibula fracture region = experiment: Acceleration of fracture healing in normal rats, Compound (2) microspheres (Experimental Example 2); assay type: in vivo, rat; settings: Example 7 microspheres; for Fibula Bone Mineral Content / Fibula Bone Volume / Fibula Bone Mineral Density: 2 weeks after suturing; for Fibula Bone Mineral Density: DXA at fracture region; for Breaking Energy: 4 weeks after suturing, three-point bending test
Experimental: CD (SD) IGS rats (Charles River Japan, Inc.; male; 7-week-old) were housed for seven days at room temperature (23±2° C.) and 50±20% humidity. During the housing period, the rats were free to access commercially available food (from Oriental Bio; CE-2).
Under ether anesthesia, the left-lower legs of rats were shaved and sterilized with 70% aqueous ethanol; fibulas were exposed with scissors and cut with nail scissors (Natsume Seisakusyo; B17). The cut sections of the fibula were re-matched with tweezers. For the test groups (15 rats/group), the drug-containing microspheres prepared in Example 7, which contains 0.004, 0.02, 0.1 or 0.5 mg of Compound (2), were placed around the cutting site using spatula followed by suturing with silk thread. For the control group (15 rats/group), the same amount of drug-free microspheres prepared in Control Example 2 were placed around the cutting site using spatula followed by suturing with silk thread. Following the suturing, every animal was sterilized with 70% aqueous ethanol. Five rats at two weeks later and 10 rats at four weeks later were taken from each group and sacrificed by laparotomy with bleeding under ether anesthesia and the fibulas were excised.
The fibula excised at 2 weeks after suturing was subjected to DXA bone densitometer (from Aloka; DCS-600) to determine bone mineral density and bone mineral content at fracture region (scanning width: 1 mm).
The volume of fibula excised at 2 weeks after suturing was determined using Plethysmometer (Muromachi Kikai Co., Ltd.; TK-101).
The fibula excised at 4 weeks after suturing was subjected to a three-point bending test with bone strength tester (from Muromachi Kikai Co., Ltd.; TK-252C) to determine bone strength. Briefly, the fibula was supported by two supports apart from each other by 8 mm and the cut section was positioned at the middle of these supports, i.e., 4 mm apart from the respective two supports. Loading (3 mm/minute) from upper direction was kept on the middle point (fracture section) of fibula until fibula begins to fracture. The breaking force […] spent to break the bone was defined as the breaking energy.

[1] = test system: rabbit costicartilage cells; experiment: Cartilage matrix (proteoglycan) production, Alcian blue staining (Experimental Examples 3 and 4); assay type: cell-based; settings: summary of Tables 10 and 11
Source text: Costicartilages were isolated from NZ line rabbit (Kitayama Labes., Co Ltd.; male; 4-week-old) and soaked into Hank's balanced salt solution (calcium- and magnesium-free; LifeTech Co., Ltd.; hereinafter, referred to as “HBSS”). One costicartilage and one costa were excised together, the adipose tissue and the muscle tissue were removed and then, the proliferating chondrocyte layer of costicartilage was excised. The collected proliferating chondrocyte layer was cut into sections with a surgical knife (FEATHER Safety Razor Co., Ltd.) and the all proliferating chondrocyte layer sections from 4 rabbits were combined in a centrifuge tube. To the centrifuge tube was added 40 ml of HBSS (pH 7.2) supplied with 0.1% tetrasodium ethylenediamine tetraacetate to obtain suspension of the proliferating chondrocyte layer sections, which was shaken at 37° C. for 20 minutes and centrifuged (1500 rpm, 10 minutes). The supernatant was aspirated off, and 40 ml of HBSS (pH 7.2) supplied with 0.2% trypsin was added to the tube to suspend the precipitates and shaken at 37° C. for 1 hour. The tube was centrifuged (1500 rpm, 10 minutes), and the supernatant was aspirated off. The precipitates were washed twice with HBSS, suspended in 100 ml of HBSS supplied with 0.1% collagenase (Wako Pure Chemical Industries, Ltd., 034-10533) and shaken at 37° C. for 3 hours. The content of the tube was passed through the Cell Strainer (pore size 40 μm) and the filtrate was divided into four centrifuge tubes. To each of all four tubes was added 40 ml of medium (α-MEM, LifeTech Co., Ltd.), and the tubes were centrifuged (1500 rpm, 10 minutes). The supernatant was aspirated off, and the resultant precipitates were collected in one tube with Pipetman. After addition of 40 ml of the same medium, the tube was re-centrifuged (1500 rpm, 10 minutes). Washing procedure comprising addition of medium followed by centrifugation was repeated additional three times. The precipitates were suspended in the same medium to give an about 5 ml suspension, and the cell number was counted.
The suspension of costicartilage cell described above was added to 24-well plate at 50,000 cells per well (day 1). […]
After removing the medium, cells in each well were fixed by addition of 1 ml of neutral buffer containing 4% paraformaldehyde and incubation for 30 minutes at room temperature. […] Absorbance at 620 nm was measured, and cartilage matrix amount (proteoglycan production amount) in each well was estimated, and proteoglycan production rate (%) of each test compound for vehicle (100%) was calculated.
The cartilage matrix (proteoglycan) production was determined using other compounds (compounds (52)-(55) and Compound (2) for comparison) in exactly the same manner as Experimental Example 3 above.

CCOc1cc2cc(CO)c(CO)c(-c3ccnc(-n4nc(-c5cccnc5)c5ccccc5c4=O)c3)c2cc1OCC [Compound (2)]
Fibula Bone Mineral Content (fibula fracture region; drug content 0.004 mg): 15.90 ± 1.88 mg | Fibula Bone Volume (fibula fracture region; drug content 0.004 mg): 85.0 ± 8.14 µL | Fibula Bone Mineral Density (fibula fracture region; drug content 0.004 mg): 46.18 ± 3.18 mg/cm^2 | Breaking Energy (fibula fracture region; drug content 0.004 mg): 2.66 ± 0.49 mJ | Fibula Bone Mineral Content (fibula fracture region; drug content 0.02 mg): 19.86 ± 1.75 mg | Fibula Bone Volume (fibula fracture region; drug content 0.02 mg): 97.6 ± 4.99 µL | Fibula Bone Mineral Density (fibula fracture region; drug content 0.02 mg): 50.72 ± 2.68 mg/cm^2 | Breaking Energy (fibula fracture region; drug content 0.02 mg): 2.59 ± 0.55 mJ | Fibula Bone Mineral Content (fibula fracture region; drug content 0.1 mg): 23.10 ± 2.72 mg | Fibula Bone Volume (fibula fracture region; drug content 0.1 mg): 121.6 ± 13.76 µL | Fibula Bone Mineral Density (fibula fracture region; drug content 0.1 mg): 56.06 ± 4.19 mg/cm^2 | Breaking Energy (fibula fracture region; drug content 0.1 mg): 3.15 ± 0.54 mJ | Fibula Bone Mineral Content (fibula fracture region; drug content 0.5 mg): 23.24 ± 2.97 mg | Fibula Bone Volume (fibula fracture region; drug content 0.5 mg): 132.2 ± 11.72 µL | Fibula Bone Mineral Density (fibula fracture region; drug content 0.5 mg): 52.18 ± 4.36 mg/cm^2 | Breaking Energy (fibula fracture region; drug content 0.5 mg): 3.27 ± 0.61 mJ | cartilage matrix (proteoglycan) production promoting effect (in words) [1]: remarkable matrix production promoting effect
